Experimental data taken from the NIST ThermoML archive (doi:10.1021/acs.jced.7b00393).
± gives the expanded uncertainty stated by the source.

Columns and labels:
[1] = 298.2 K; 101.33 kPa; Liquid; Vibrating tube method
[2] = refractive index (Na D-line) (dimensionless); details: 298.2 K; 101.33 kPa; Liquid; Standard Abbe refractometry
[3] = refractive index (Na D-line) (dimensionless); wn = mass fraction of the nth substance listed; details: 81.5 kPa, Liquid, Standard Abbe refractometry

SMILES | mass density [1] [kg/m3] | refractive index [2] | refractive index ([3]; 293.2 K, w2 = 0.0006) | refractive index ([3]; 293.2 K, w2 = 0.9998) | refractive index ([3]; 298.2 K, w2 = 0.0009) | refractive index ([3]; 298.2 K, w2 = 0.9996) | refractive index ([3]; 308.2 K, w2 = 0.0011) | refractive index ([3]; 308.2 K, w2 = 0.9994)
CC(C)c1ccccc1 [isopropylbenzene] | 857.54 ± 1.7 | 1.49005 ± 0.0014 |  |  |  |  |  | 
O [water] |  | 1.3325 ± 0.0014 |  |  |  |  |  | 
CC(C)c1ccccc1 [isopropylbenzene] + O |  |  | 1.4915 ± 0.0014 | 1.3335 ± 0.0014 | 1.49001 ± 0.0014 | 1.333 ± 0.0014 | 1.4859 ± 0.0014 | 1.33195 ± 0.0014
